{
  "source": "the NIST ThermoML archive (doi:10.1021/acs.jced.6b00813)",
  "key": {"[1]": {"assay": "wn = mass fraction of the nth substance listed", "conditions": "101.3 kPa, Liquid, Pycnometric method"}, "[2]": {"conditions": "Crystal; Titration method"}},
  "note": "Numbers after ± are expanded uncertainties.",
  "data": [
    {"smiles": "[Ca+2].[Cl-].[Cl-]", "note": "[calcium chloride] + O", "values": [
      {"measurement": "mass density", "setting": "[1]; 273.15 K, w1 = 0.373", "value": "1427 ± 2", "unit": "kg/m3"}
    ]},
    {"smiles": "O=[PH2][O-].O=[PH2][O-].[Ca+2]", "note": "[calcium hypophosphite] + O", "values": [
      {"measurement": "mass density", "setting": "[1]; 268.75 K, w1 = 0.1397", "value": "1133 ± 2", "unit": "kg/m3"},
      {"measurement": "mass density", "setting": "[1]; 270.15 K, w1 = 0.0909", "value": "1089 ± 2", "unit": "kg/m3"},
      {"measurement": "mass density", "setting": "[1]; 271.4 K, w1 = 0.0476", "value": "1047 ± 2", "unit": "kg/m3"},
      {"measurement": "mass density", "setting": "[1]; 272.15 K, w1 = 0.0244", "value": "1024 ± 2", "unit": "kg/m3"},
      {"measurement": "mass density", "setting": "[1]; 273.15 K, w1 = 0.1381", "value": "1132 ± 2", "unit": "kg/m3"},
      {"measurement": "mass density", "setting": "[1]; 283.15 K, w1 = 0.1362", "value": "1131 ± 2", "unit": "kg/m3"},
      {"measurement": "mass density", "setting": "[1]; 293.15 K, w1 = 0.1341", "value": "1128 ± 2", "unit": "kg/m3"},
      {"measurement": "mass density", "setting": "[1]; 303.15 K, w1 = 0.1322", "value": "1125 ± 2", "unit": "kg/m3"},
      {"measurement": "mass density", "setting": "[1]; 313.15 K, w1 = 0.1304", "value": "1121 ± 2", "unit": "kg/m3"},
      {"measurement": "mass density", "setting": "[1]; 323.15 K, w1 = 0.1293", "value": "1117 ± 2", "unit": "kg/m3"},
      {"measurement": "mass density", "setting": "[1]; 333.15 K, w1 = 0.1292", "value": "1114 ± 2", "unit": "kg/m3"},
      {"measurement": "mass density", "setting": "[1]; 343.15 K, w1 = 0.1292", "value": "1111 ± 3", "unit": "kg/m3"},
      {"measurement": "mass density", "setting": "[1]; 353.15 K, w1 = 0.1295", "value": "1107 ± 3", "unit": "kg/m3"},
      {"measurement": "mass density", "setting": "[1]; 363.15 K, w1 = 0.1297", "value": "1103 ± 2", "unit": "kg/m3"},
      {"measurement": "mass density", "setting": "[1]; 373.15 K, w1 = 0.1302", "value": "1103 ± 2", "unit": "kg/m3"},
      {"measurement": "mass density", "setting": "[1]; 376.95 K, w1 = 0.1302", "value": "1103 ± 2", "unit": "kg/m3"}
    ]},
    {"smiles": "O=[PH2][O-].[Na+]", "note": "[sodium phosphinate] + O", "values": [
      {"measurement": "mass density", "setting": "[1]; 273.15 K, w1 = 0.4776", "value": "1381 ± 2", "unit": "kg/m3"}
    ]},
    {"smiles": "O", "note": "[water]", "values": [
      {"measurement": "Normal melting temperature", "setting": "[2]", "value": "0.00 ± 0.77", "unit": "°C"}
    ]},
    {"smiles": "O", "note": "[water] + O=[PH2][O-].O=[PH2][O-].[Ca+2]", "values": [
      {"measurement": "mass density", "setting": "[1]; 273.15 K, w2 = 0", "value": "999 ± 4", "unit": "kg/m3"}
    ]}
  ]
}
